Numbered stars: 1 amine (or outer) side, 2 acyl side, 3 side chain; on linkers, the order of the positions; unused ones are H or OH. Square brackets hold non-standard residues; d marks the D form. Peptide text beside a SMILES is read from it. * marks the point of attachment. Pro(4R-NH2) = N[C@H]1CN[C@H](C(=O)O)C1; dOrn(Me2) = CN(C)CCC[C@@H](N)C(=O)O; X2 = O=C([C@H]1CCCN([*:1])C1)[*:2]; dDap(Me2) = CN(C)C[C@@H](N)C(=O)O; Hyp = O=C(O)[C@@H]1C[C@@H](O)CN1; NHcycloheptyl = C1CCCC(N*)CC1; NMeL = CN[C@@H](CC(C)C)C(=O)O; Octanoyl = CCCCCCCC(=O)*
Experiments:
NPR-B = molecular target: T1, NPR-B (Homo sapiens, UniProt P20594); test: NPR-B induced production of cyclic GMP in human glaucoma trabecular meshwork cells (GTM-3); format: cell-based; conditions: group by EC50 and Emax (CNP = 100%); Table 4; read-out: Activity (group), NPR-B activation assayed with GTM-3 cells
T1 construct: a functional assay using endogenously NPR-B expressing GTM-3 cells; endogenous in cells; host or cells: GTM-3 (human glaucoma trabecular meshwork cells)
T1 sequence (P20594 23-1047): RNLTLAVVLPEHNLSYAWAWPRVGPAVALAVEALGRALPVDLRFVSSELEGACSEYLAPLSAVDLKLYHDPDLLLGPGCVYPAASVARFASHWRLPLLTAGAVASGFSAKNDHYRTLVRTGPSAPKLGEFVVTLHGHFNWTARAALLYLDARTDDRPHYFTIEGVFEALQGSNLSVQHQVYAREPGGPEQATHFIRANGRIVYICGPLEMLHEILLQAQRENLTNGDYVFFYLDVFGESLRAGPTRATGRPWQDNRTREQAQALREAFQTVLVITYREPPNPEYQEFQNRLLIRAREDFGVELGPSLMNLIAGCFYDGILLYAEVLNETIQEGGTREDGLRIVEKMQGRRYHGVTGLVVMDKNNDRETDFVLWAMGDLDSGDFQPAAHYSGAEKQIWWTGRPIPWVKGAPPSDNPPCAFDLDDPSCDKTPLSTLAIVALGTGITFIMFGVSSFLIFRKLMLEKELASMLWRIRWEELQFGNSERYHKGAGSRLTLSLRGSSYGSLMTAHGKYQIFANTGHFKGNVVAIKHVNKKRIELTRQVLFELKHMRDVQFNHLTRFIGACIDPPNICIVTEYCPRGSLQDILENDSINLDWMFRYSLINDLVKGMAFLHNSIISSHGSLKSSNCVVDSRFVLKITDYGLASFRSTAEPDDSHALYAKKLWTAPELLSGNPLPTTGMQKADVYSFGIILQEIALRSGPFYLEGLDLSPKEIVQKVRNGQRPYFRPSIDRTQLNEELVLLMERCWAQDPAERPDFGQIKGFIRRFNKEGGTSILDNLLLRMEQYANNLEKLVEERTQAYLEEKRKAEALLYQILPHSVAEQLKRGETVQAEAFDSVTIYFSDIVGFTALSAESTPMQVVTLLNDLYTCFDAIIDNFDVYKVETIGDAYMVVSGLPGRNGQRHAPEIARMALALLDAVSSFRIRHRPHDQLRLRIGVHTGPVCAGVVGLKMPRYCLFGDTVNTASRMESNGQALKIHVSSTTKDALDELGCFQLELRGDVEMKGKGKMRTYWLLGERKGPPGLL

rabbit eyes = test: Efficacy in the rabbit: intraocular pressure (IOP) after a single topical ocular drop; format: in vivo; conditions: dose 300 ug topical ocular, single 30 μL drop, up to 4 hr post dose, 1% as suspension (+) or solution (++) per mark on label
Procedure: A single 30 μL drop of a test item formulation was administered to rabbit eyes (n=8 to 10).
Intraocular pressure (IOP) was assessed in each eye at 0 hr, just prior to dosing, and again hourly for up to 4 hr post dose. The efficacy of a given formulation was determined based on the difference between the pretreatment TOP readings at 0 hr and the post treatment readings. A maximum percent reduction in IOP greater than 15% was noted by the “+” symbol. A maximum IOP reduction of less than 15% was assigned the “−” symbol.

[1] = tested on: human colon adenocarcinoma cells; conditions: 1 mM ANP, within 24 h; cited from earlier work

SMILES | EC50 (NPR-B) | RIOP, maximum percent reduction in IOP (rabbit eyes) | decrease in cell number [1]
CCCCCCCC(=O)N1CCC[C@H](C(=O)N[C@@H](Cc2ccccc2)C(=O)N[C@H](CC(C)C)C(=O)N[C@@H](CC(C)C)C(=O)N2C[C@H](O)C[C@H]2C(=O)N(C)[C@@H](CC(C)C)C(=O)N[C@@H](CC(=O)O)C(=O)N[C@@H](CCCNC(=N)N)C(=O)N[C@H](C(N)=O)[C@@H](C)CC)C1 [JAL-1041, Occ-Sni-Phe-leu-Leu-Hyp-Nml-Asp-Arg-Ile-NH2] (HELM PEPTIDE1{[CCCCCCCC(=O)[*:2]].[O=C([C@H]1CCCN([*:1])C1)[*:2]].F.[dL].L.[Hyp].[meL].D.R.I.[am]}$$$$V2.0) | < 1000 nM | + (+ IOP reduction >15%) | –
CCCCCCCC(=O)N[C@H](C)C(=O)N[C@@H](Cc1ccccc1)C(=O)N[C@H](CC(C)C)C(=O)N[C@@H](CC(C)C)C(=O)N1C[C@H](O)C[C@H]1C(=O)N(C)[C@@H](CC(C)C)C(=O)N[C@@H](CC(=O)O)C(=O)N[C@@H](CCCNC(=N)N)C(=O)N[C@H](C(N)=O)[C@@H](C)CC [JAL-1042, Occ-ala-Phe-leu-Leu-Hyp-Nml-Asp-Arg-Ile-NH2] (HELM PEPTIDE1{[CCCCCCCC(=O)[*:2]].[dA].F.[dL].L.[Hyp].[meL].D.R.I.[am]}$$$$V2.0) | < 1000 nM | − (− IOP reduction <15%) | –
CC[C@H](C)[C@@H]1NC(=O)[C@H](CCCNC(=N)N)NC(=O)[C@H](CC(=O)O)NC(=O)[C@H](CCSC)NC(=O)[C@H](CCCNC(=N)N)NC(=O)CNC(=O)CNC(=O)[C@H](Cc2ccccc2)NC(=O)[C@@H](NC(=O)[C@H](CO)NC(=O)[C@H](CO)NC(=O)[C@H](CCCNC(=N)N)NC(=O)[C@H](CCCNC(=N)N)NC(=O)[C@H](CC(C)C)NC(=O)[C@@H](N)CO)CSSC[C@@H](C(=O)N[C@@H](CC(N)=O)C(=O)N[C@@H](CO)C(=O)N[C@@H](Cc2ccccc2)C(=O)N[C@@H](CCCNC(=N)N)C(=O)N[C@@H](Cc2ccc(O)cc2)C(=O)O)NC(=O)CNC(=O)[C@H](CC(C)C)NC(=O)CNC(=O)[C@H](CO)NC(=O)[C@H](CCC(N)=O)NC(=O)[C@H](C)NC(=O)CNC1=O [ANP, atrial natriuretic peptide] | – | – | up to 97%
CCCCCCCC(=O)N[C@H](C)C(=O)N[C@@H](Cc1ccccc1)C(=O)N[C@H](CCCNC(=N)N)C(=O)N[C@@H](CC(C)C)C(=O)N1C[C@H](O)C[C@H]1C(=O)N[C@@H](CC(C)C)C(=O)N[C@@H](CC(=O)O)C(=O)N[C@@H](CCCNC(=N)N)C(=O)N[C@H](C(N)=O)[C@@H](C)CC [JAL-1047, Occ-ala-Phe-arg-Leu-Hyp-Leu-Asp-Arg-Ile-NH2] (HELM PEPTIDE1{[CCCCCCCC(=O)[*:2]].[dA].F.[dR].L.[Hyp].L.D.R.I.[am]}$$$$V2.0) | < 1000 nM | + (+ IOP reduction >15%) | –

Further lines, with some results ahead:

EC50 (NPR-B) | SMILES | RIOP, maximum percent reduction in IOP (rabbit eyes) | decrease in cell number [1]
< 1000 nM | CCCCCCCC(=O)N[C@H](C)C(=O)N(C)[C@@H](Cc1ccccc1)C(=O)N[C@H](CCCNC(=N)N)C(=O)N[C@@H](CC(C)C)C(=O)N1C[C@H](O)C[C@H]1C(=O)N(C)[C@@H](CC(C)C)C(=O)N[C@@H](CC(=O)O)C(=O)N[C@@H](CCCNC(=N)N)C(=O)N[C@H](C(N)=O)[C@@H](C)CC [JAL-1085, Occ-ala-Nmf-arg-Leu-Hyp-Nml-Asp-Arg-Ile-NH2] (HELM PEPTIDE1{[CCCCCCCC(=O)[*:2]].[dA].[meF].[dR].L.[Hyp].[meL].D.R.I.[am]}$$$$V2.0) | + (+ IOP reduction >15%) | –
< 1000 nM | CCCCCCCC(=O)N1CCC[C@H](C(=O)N[C@@H](Cc2ccccc2)C(=O)N[C@H](CC(C)C)C(=O)N[C@@H](CC(C)C)C(=O)N2C[C@H](O)C[C@H]2C(=O)N(C)[C@@H](CC(C)C)C(=O)N[C@H](C(=O)N[C@@H](CCCNC(=N)N)C(=O)NC2CCCCCC2)C(C)C)C1 [JAL-1730, Occ-Sni-Phe-leu-Leu-Hyp-Nml-Val-Arg-Che] (Octanoyl-[X2]F[dL]L[Hyp][NMeL]VR-NHcycloheptyl) | + (+ IOP reduction >15%) | –
< 1000 nM | CCCCCCCC(=O)N1CCC[C@H](C(=O)N[C@@H](Cc2ccccc2)C(=O)N[C@H](CCCN(C)C)C(=O)N[C@@H](CC(C)C)C(=O)N2C[C@H](O)C[C@H]2C(=O)N(C)[C@@H](CC(C)C)C(=O)N[C@@H](CC(=O)O)C(=O)N[C@@H](CCCNC(=N)N)C(=O)N[C@H](C(N)=O)[C@@H](C)CC)C1 [JAL-1289, Occ-Sni-Phe-orn(Me2)-Leu-Hyp-Nml-Asp-Arg-Ile-NH2] (Octanoyl-[X2]F[dOrn(Me2)]L[Hyp][NMeL]DRI-NH2) | + (+ IOP reduction >15%) | –
< 1000 nM | CCCCCCCC(=O)N1CCC[C@H](C(=O)N[C@@H](Cc2ccccc2)C(=O)N[C@H](CN(C)C)C(=O)N[C@@H](CC(C)C)C(=O)N2C[C@H](N)C[C@H]2C(=O)N(C)[C@@H](CC(C)C)C(=O)N[C@@H](CC(=O)O)C(=O)N[C@@H](CCCNC(=N)N)C(=O)N[C@H](C(N)=O)[C@@H](C)CC)C1 [JAL-1325, Occ-Sni-Phe-dap(Me2)-Leu-Tap-Nml-Asp-Arg-Ile-NH2] (Octanoyl-[X2]F[dDap(Me2)]L[Pro(4R-NH2)][NMeL]DRI-NH2) | + (+ IOP reduction >15%) | –
< 1000 nM | CCCCCCCC(=O)N1CCC[C@H](C(=O)N[C@@H](Cc2ccccc2)C(=O)N[C@H](CC(C)C)C(=O)N[C@@H](CC(C)C)C(=O)N2C[C@H](N)C[C@H]2C(=O)N(C)[C@@H](CC(C)C)C(=O)N[C@H](C(=O)N2CCC[C@H]2C(=O)NC2CCCCCC2)C(C)C)C1 [JAL-1654, Occ-Sni-Phe-leu-Leu-Tap-Nml-Val-Pro-Che] (Octanoyl-[X2]F[dL]L[Pro(4R-NH2)][NMeL]VP-NHcycloheptyl) | − (− IOP reduction <15%) | –

From patent US9822147B2, “Methods of treating ophthalmic diseases using NPR-B agonists” (priority 2009, dated 2017)
